Source: patent US20250032426A1, “PHARMACEUTICAL COMPOSITIONS” (SpecNova LLC, priority 2021, published 2025)

Target: Human Dopamine Transporter (DAT) (Homo sapiens, UniProt Q01959)
Assay: Human Dopamine Transporter (DAT) Binding (Antagonist Radioligand) Assay
Settings: for % of Control Specific Binding (1st Test) / % of Control Specific Binding (2nd Test) / % Inhibition of Control Specific Binding / % of Control Specific Binding (mean of two tests): [3H]BTCP 4 nM radioligand; for % Inhibition of Control Specific Binding: cell membrane homogenates, 120 min at 4° C., test concentration not given; for level of inhibition in the dopamine transporter inhibitory assay (in words): qualitative statement in the description
Description: Human Dopamine Transporter (DAT) Binding (Antagonist Radioligand) Assay
Nonspecific binding is determined in the presence of 10 μM BTCP. Following incubation, the samples are filtered rapidly under vacuum through glass fiber filters (GF/B, Packard) presoaked with 0.3% PEI and rinsed several times with ice-cold 50 mM Tris-HCl using a 96-sample cell harvester (Unifilter, Packard). The filters are dried then counted for radioactivity in a scintillation counter (Topcount, Packard) using a scintillation cocktail (Microscint 0, Packard). The results are expressed as a percent inhibition of the control radioligand specific binding.

Sequence of Human Dopamine Transporter (DAT) (Q01959 whole entry): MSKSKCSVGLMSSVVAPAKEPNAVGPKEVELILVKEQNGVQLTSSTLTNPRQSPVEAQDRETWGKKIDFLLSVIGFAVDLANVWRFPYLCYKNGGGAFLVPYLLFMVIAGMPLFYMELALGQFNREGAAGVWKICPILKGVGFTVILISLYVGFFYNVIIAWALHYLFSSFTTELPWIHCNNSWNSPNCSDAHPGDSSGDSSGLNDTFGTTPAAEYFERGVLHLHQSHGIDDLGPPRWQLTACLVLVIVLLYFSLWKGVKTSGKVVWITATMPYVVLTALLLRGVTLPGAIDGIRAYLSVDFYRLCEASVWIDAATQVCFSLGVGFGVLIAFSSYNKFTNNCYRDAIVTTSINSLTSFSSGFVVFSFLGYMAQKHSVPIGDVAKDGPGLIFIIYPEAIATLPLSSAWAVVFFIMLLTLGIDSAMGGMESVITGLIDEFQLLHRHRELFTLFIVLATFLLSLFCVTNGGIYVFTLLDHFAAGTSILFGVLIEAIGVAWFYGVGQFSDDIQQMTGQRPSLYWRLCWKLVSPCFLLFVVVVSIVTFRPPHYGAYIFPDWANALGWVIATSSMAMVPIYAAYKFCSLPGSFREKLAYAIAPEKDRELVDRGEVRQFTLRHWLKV

With `CC(C)=CCc1c(C2CCc3ccc(O)cc3O2)ccc(O)c1O` (stereo in doubt) [Kazinol U, 4-[(2S)-7-hydroxy-3,4-dihydro-2H-chromen-2-yl]-3-(3-methylbut-2-enyl) benzene-1,2-diol] the “% of Control Specific Binding (1st Test)” value was 33.6%, the “% of Control Specific Binding (2nd Test)” value was 42.8% and the “% Inhibition of Control Specific Binding” value was 62%. For the same molecule, the “% of Control Specific Binding (mean of two tests)” value was 38.2% and the “level of inhibition in the dopamine transporter inhibitory assay (in words)” value (“level of inhibition” for short) was “high level of inhibition”.
For `OC[C@@H](O)[C@@H](/C=C/c1ccc(O)cc1)c1ccc(O)cc1` [Agatharesinol, (2S,3S,4E)-3,5-bis(4-hydroxyphenyl)pent-4-ene-1,2-diol], the “% of Control Specific Binding (1st Test)” value was 4.2%, the “% of Control Specific Binding (2nd Test)” value was 5% and the “% Inhibition of Control Specific Binding” value was 95%. For the same molecule, the “% of Control Specific Binding (mean of two tests)” value was 4.6% and the “level of inhibition” value was “extremely high level of inhibition”.
With `OC[C@@H](O)[C@@H](/C=C/c1ccc(O)cc1)c1ccc(O)c(O)c1` [Sequirin C, 4-[(1S,2E)-1-[(1S)-1,2-dihydroxyethyl]-3-(4-hydroxyphenyl)prop-2-en-1-yl]benzene-1,2-diol] the “% of Control Specific Binding (1st Test)” value was 7.4%, the “% of Control Specific Binding (2nd Test)” value was 5.6% and the “% Inhibition of Control Specific Binding” value was 94%. For the same molecule, the “% of Control Specific Binding (mean of two tests)” value was 6.5% and the “level of inhibition” value was “extremely high level of inhibition”.
